Results: US12644133B2, “Methods and compositions to increase somatic cell nuclear transfer (SCNT) efficiency by removing histone H3-lysine trimethylation” (The Children's Medical Center Corporation, priority 2014, dated 2026)

Tested on: SCNT embryos
Test: Preimplantation development of SCNT embryos cultured in vitro
Type: cell-based, mouse
Conditions: for No. of blastocyst / blastocyst (% per 1-cell): ntESC derivation experiment
Source text: C57BL/6J female mice were mated with DBA/2J males to produce B6D2F1/J (BDF1) mice. BDF1 and CD-1 (ICR) adult females were used for the collection of recipient oocytes and embryo transfer recipients, respectively. BDF1 mice were used for the collection of donor somatic cells for the analyses of development. (C57BL/6×CAST/EiJ) F1 mice were used for the collection of donor cells for RNA-seq. E13.5 embryos harboring GOF18 delta-PE (Jackson Laboratory, 004654: Tg(Pou5f1-EGFP)2Mnn, C57BL/6J background) were used for the isolation of mouse embryonic fibroblasts (MEF). All animal experiments were approved by the Institutional Animal Care and Use Committee of Harvard Medical School.
Cumulus cells were collected from adult BDF1 females through superovulation by injecting 7.5 IU of pregnant mare serum gonadotropin (PMSG; Harbor) and 7.5 IU of human chorionic gonadotropin (hCG; Millipore). Fifteen hours after the hCG injection, cumulus-oocyte complexes (COCs) were collected from the oviducts and briefly treated with Hepes-buffered potassium simplex-optimized medium (KSOM) containing 300 U/ml bovine testicular hyaluronidase (Calbiochem #385931) to obtain dissociated cumulus cells. Sertoli cells were collected from testes of 3- to 5-day-old BDF1 male mice as described (Matoba et al., 2011). Testicular masses were incubated in PBS containing 0.1 mg/ml collagenase (Life Technologies #17104-019) for 30 min at 37° C. followed by 5 min treatment with 0.25% Trypsine with 1 mM EDTA (Life Technologies #25200-056) at room temperature. After washing for four times with PBS containing 3 mg/ml bovine serum albumin, the dissociated cells were suspended in Hepes-KSOM medium.
Primary mouse embryonic fibroblast (MEF) cells were established from GOF18 delta-PE mouse embryos at 13.5 dpc. After removal of head and all organs, minced tissue from remaining corpus was dissociated in 500 μl of 0.25% Trypsine with 1 mM EDTA for 10 min at 37° C. Cell suspension was diluted with equal amount of DMEM (Life Technologies #11995-073) containing 10% FBS and Penicillin/Streptomycin (Life Technologies #15140-022) and pipetted up and down for 20 times. The cell suspension was diluted with fresh medium and plated onto 100 mm dishes and cultured at 37° C. Two days later, MEF cells were harvested and frozen. Frozen stocks of MEF cells were thawed and used for experiments after one passage.
siRNAs against mouse Suv39h1 (Life Technologies #s74607), Suv39h2 (Life Technologies #s82300) and Setdb1 (Life Technologies #s96549) were diluted in nuclease free water at 50 μM stock solutions. siRNAs were introduced to MEFs with Lipofectamine RNAi Max (Life technologies #35050-061) following manufacturer's protocol. Briefly, 1×10^5 MEF cells were seeded onto 24-well plate (day 0; see FIG. 5A). Twenty-four hours later, […] siRNAs were transfected into MEF cells using Lipofectamine RNAi Max (day 1). Twenty-four hours after the first transfection, the culture media was changed to fresh M293T media [DMEM supplemented with 10% FBS, 0.1 mM non-essential amino acids (Life technologies #11140-050), 2 mM GlutaMAX (Life technologies #35050-079), 50 U/ml penicillin-streptomycin and 0.1 mM 2-mercaptoethanol (Life technologies #21985-023)] (day 2). On day 3, MEF cells were reseeded onto 24-well plates at the density of 1×10^5 cells. Then transfection was repeated once as described above (day 4). Forty-eight hours after the second transfection (day 6), MEF cells were used for immunostaining, RT-qPCR or SCNT.
Somatic cell nuclear transfer was carried out as described previously (Matoba et al., 2011). Briefly, recipient MII oocytes were collected from superovulated adult BDF1 females by brief treatment with 300 U/ml bovine testicular hyaluronidase (Calbiochem). Isolated MII oocytes were enucleated in Hepes-buffered KSOM medium containing 7.5 μg/ml of cytochalasin B (Calbiochem #250233). […]

[1] = MEF donor cells (C57BL/6, male) treated with transfection reagent alone, injected mRNA 1800 ng/μl
[2] = Sertoli donor cells (BDF1, male), injected mRNA 1800 ng/μl
[3] = cumulus donor cells (BDF1, female), TSA treatment 15 nM for 8 h, water or mRNA 1800 ng/μl injected
[4] = cumulus donor cells (BDF1, female), no TSA, injected mRNA 1800 ng/μl
[5] = cumulus donor cells (BDF1, female), no TSA, mRNA 1800 ng/μl

**Q.** With “Kdm4d WT mRNA: in vitro transcribed full length mouse Kdm4d mRNA, encoding an H3K9me3-specific histone demethylase” as the substance, how does the “% 4-cell per 2-cell ± SD” value [1] read?
**A.** 95.4 ± 5.5 %

**Q.** And the “% blast per 2-cell ± SD” value [1]?
**A.** 82.0 ± 10.3 %

**Q.** And the “% cleaved per 1-cell ± SD” value [1]?
**A.** 86.9 ± 8.8%

**Q.** What about the “% morula per 2-cell ± SD” value [1] of the same substance?
**A.** 89.6 ± 7.9 %

**Q.** And the “developmental efficiency of SCNT embryos (in words)” value (Sertoli cells or C57BL/6 background MEF cells as donor cells)?
**A.** significantly improved the developmental efficiency

**Q.** What about the “% 4-cell per 2-cell ± SD” value [2] of the same substance?
**A.** 95.3 ± 3.6 %

**Q.** What about the “% blast per 2-cell ± SD” value [2] of the same substance?
**A.** 81.2 ± 7.5 %

**Q.** What about the “% cleaved per 1-cell ± SD” value [2] of the same substance?
**A.** 89.3 ± 8.4%

**Q.** And the “% morula per 2-cell ± SD” value [2]?
**A.** 91.6 ± 6.4 %

**Q.** What about the “% 4-cell per 2-cell ± SD” value [3] of the same substance?
**A.** 95.8 ± 0.0 %

**Q.** And the “% cleaved per 1-cell ± SD” value [3]?
**A.** 94.1 ± 0.0%

**Q.** And the “% morula per 2-cell ± SD” value [3]?
**A.** 93.8 ± 6.3 %

**Q.** And the “% blast per 2-cell ± SD” value (cumulus donor cells (BDF1, female), TSA treatment 15 nM for 8 h, water or mRNA 1800 ng/μl injected, listed as Kdm4d WT)?
**A.** 87.5 ± 12.5 %

**Q.** And the “% blast per 2-cell ± SD” value (cumulus donor cells (BDF1, female), TSA treatment 15 nM for 8 h, water or mRNA 1800 ng/μl injected, listed as Kdm4d mRNA)?
**A.** 87.5%

**Q.** And the “% 4-cell per 2-cell ± SD” value [4]?
**A.** 98.9 ± 2.3 %

**Q.** What about the “% cleaved per 1-cell ± SD” value [4] of the same substance?
**A.** 92.7 ± 6.2%

**Q.** What about the “% morula per 2-cell ± SD” value [4] of the same substance?
**A.** 96.5 ± 4.4 %

**Q.** And the “% blast per 2-cell ± SD” value (cumulus donor cells (BDF1, female), no TSA, injected mRNA 1800 ng/μl, 96 h culture, listed as Kdm4d)?
**A.** 88.6%

**Q.** What about the “% blast per 2-cell ± SD” value (cumulus donor cells (BDF1, female), no TSA, injected mRNA 1800 ng/μl, 96 h culture, listed as Kdm4d WT) of the same substance?
**A.** 88.6 ± 3.9 %

**Q.** What about the “% blast per 2-cell ± SD” value (cumulus donor cells (BDF1, female), no TSA, injected mRNA 1800 ng/μl, 96 h culture, listed as wild-type Kdm4d mRNA) of the same substance?
**A.** 88.6%

**Q.** What about the No. of blastocyst [3] of the same substance?
**A.** 21

**Q.** And the “blastocyst (% per 1-cell)” value [3]?
**A.** 95.5%

**Q.** What about the No. of blastocyst [5] of the same substance?
**A.** 18

**Q.** And the “blastocyst (% per 1-cell)” value [5]?
**A.** 94.7%
